Results from patent US11214803B2, “Modulators of YAP1 expression” (Ionis Pharmaceuticals, Inc., priority 2019, dated 2022).
Strand notation (5' to 3'): a small letter for the sugar, then the base; units joined by * are phosphorothioate-linked, units joined directly phosphodiester-linked; [ ] holds rarer units or linkages, { } end groups; capitals alone tell only the bases. k = constrained ethyl (cEt); [5mC] = 5-methylcytosine; d = 2'-deoxy (DNA)

Test system: Yap1 mRNA
Assay: Antisense inhibition of human Yap1 in A-431 cells by cEt gapmers, single dose (Example 2, RTS4814)
Assay type: cell-based
How it was run: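 Free uptake, 2,000 nM, ~48 h, A-431 at 5,000 cells/well. Readout: RT-qPCR (RTS4814), RIBOGREEN-normalized, % UTC. 16-mer 3-10-3 cEt gapmers, full PS backbone, all C as 5-methylcytosine.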

[1] = A-431 cells, 5,000 cells per well, free uptake, 2,000 nM modified oligonucleotide, approx. 48 hours, RTS4814, normalized to RIBOGREEN, Table 4, asterisk (*) = targets amplicon region of primer probe set
[2] = Yap1 mRNA as percent of untreated control, A-431 cells, 3-10-3 cEt gapmers targeting SEQ ID NO.: 1, and 2, Table 31
[3] = Table 19, A-431 cells, 5,000 cells per well, free uptake, 2,000 nM modified oligonucleotide, approx. 48 hours, RTS4814, normalized to RIBOGREEN, Yap1 mRNA as percent of untreated control
[4] = Table 6, A-431 cells, 5,000 cells per well, free uptake, 2,000 nM modified oligonucleotide, approx. 48 hours, RTS4814, normalized to RIBOGREEN, Yap1 mRNA relative to untreated control cells
[5] = Table 25, Yap1 mRNA as percent of untreated control, 3-10-3 cEt gapmers targeting SEQ ID NO.: 1, and 2
[6] = Table 18, A-431 cells, 5,000 cells per well, free uptake, 2,000 nM modified oligonucleotide, approx. 48 hours, RTS4814, normalized to RIBOGREEN, Yap1 mRNA as percent of untreated control

With “716559 (k[5mC]*k[5mC]*kT*dA*dA*d[5mC]*dA*dT*dA*dT*dG*dA*dG*k[5mC]*kA*kT; antisense) [Compound 716559]” as the substance, how does the “YAP1 (% UTC)” value [1] read?
Its value is 62 % UTC.

For “1074929 (antisense kT*kA*kT*dA*d[5mC]*dA*dA*d[5mC]*dA*dG*dG*d[5mC]*d[5mC]*kT*kG*k[5mC]) [compound 1074929]”, which “YAP1 (% UTC)” value [2] is on record?
Its value is 79 % UTC.

With “1075525 (kT*kT*kA*dA*dT*dT*dA*dA*dG*dG*dG*d[5mC]*d[5mC]*k[5mC]*kA*k[5mC]; antisense) [Compound 1075525]” as the substance, how does the “YAP1 (% UTC)” value [3] read?
The value was 130 % UTC.

For “716505 (antisense kG*kA*kT*dT*dT*dA*dA*dT*d[5mC]*dT*dT*dT*d[5mC]*kT*kG*k[5mC]) [Compound 716505]”, which “YAP1 (% UTC)” value [1] is on record?
The value was 35 % UTC.

Which “YAP1 (% UTC)” value [3] does the source give for “1076357 (kT*k[5mC]*k[5mC]*dA*dA*dA*dA*dA*d[5mC]*dT*dT*d[5mC]*dT*kT*kA*kG; antisense) [Compound 1076357]” here?
Its value is 22 % UTC.

How did the “YAP1 (% UTC)” value [4] turn out when “716414 (kG*kT*kT*d[5mC]*dA*dT*dT*d[5mC]*d[5mC]*dA*dT*d[5mC]*dT*k[5mC]*k[5mC]*kT; antisense) [Compound 716414]” was run?
The value was 59 % UTC.

Which “YAP1 (% UTC)” value (Table 5, A-431 cells, 5,000 cells per well, free uptake, 2,000 nM modified oligonucleotide, approx. 48 hours, RTS4814, normalized to RIBOGREEN, Yap1 mRNA relative to untreated control cells) does the source give for “716449 (kG*kG*kT*d[5mC]*dA*dT*dT*dT*dG*d[5mC]*d[5mC]*dT*dA*kG*kG*kT; antisense) [Compound 716449]” here?
The value was 49 % UTC.

Which “YAP1 (% UTC)” value [3] does the source give for “1074757 (kA*kG*kT*dT*dA*dA*dG*d[5mC]*dA*d[5mC]*dT*dT*dT*kT*kA*k[5mC]; antisense) [Compound 1074757]” here?
The value was 21 % UTC.

How did the “YAP1 (% UTC)” value [5] turn out when “1074859 (antisense kG*kT*kA*dA*d[5mC]*dA*dT*dT*dG*dG*dT*dA*d[5mC]*kT*kA*kT) [Compound 1074859]” was run?
The value was 16 % UTC.

How did the “YAP1 (% UTC)” value [1] turn out when “716478 (kT*kA*kT*dT*dT*dT*dA*dA*dT*d[5mC]*dT*dA*dG*kT*k[5mC]*kG; antisense) [Compound 716478]” was run?
Its value is 46 % UTC.

Which “YAP1 (% UTC)” value [4] does the source give for “716381 (kT*kG*kT*d[5mC]*dT*dG*dA*dT*d[5mC]*dG*dA*dT*dG*kT*kG*kA; antisense) [Compound 716381]” here?
Its value is 35 % UTC.

With “1075728 (k[5mC]*kT*kT*dT*dA*dT*d[5mC]*dG*dG*dA*dG*dG*d[5mC]*kT*kT*k[5mC]; antisense) [compound 1075728]” as the substance, how does the “YAP1 (% UTC)” value (Yap1 mRNA as percent of untreated control, A-431 cells, 3-10-3 cEt gapmers targeting SEQ ID NO.: 1, and 2, Table 30) read?
Its value is 15 % UTC.

Which “YAP1 (% UTC)” value [5] does the source give for “1076523 (antisense kA*kT*kT*dT*dA*dT*dA*dT*d[5mC]*dA*dG*dG*dT*k[5mC]*kA*kA) [Compound 1076523]” here?
Its value is 5 % UTC.

For “1075082 (antisense k[5mC]*kT*kT*dT*dA*dG*dA*dT*dA*d[5mC]*dA*dA*dG*kA*kG*kG) [Compound 1075082]”, which “YAP1 (% UTC)” value (Table 24, Yap1 mRNA as percent of untreated control, 3-10-3 cEt gapmers targeting SEQ ID NO.: 1, and 2) is on record?
Its value is 80 % UTC.

For “1074117 (antisense kG*k[5mC]*kG*d[5mC]*d[5mC]*dT*dG*dA*dG*dA*dA*d[5mC]*dT*kT*kT*kT) [Compound 1074117]”, which “YAP1 (% UTC)” value [3] is on record?
Its value is 87 % UTC.

How did the “YAP1 (% UTC)” value [6] turn out when “1076068 (k[5mC]*kT*kA*dA*dA*dA*dT*dG*dA*d[5mC]*d[5mC]*dT*dT*kA*kG*k[5mC]; antisense) [Compound 1076068]” was run?
The value was 73 % UTC.

“716379 (k[5mC]*k[5mC]*kA*dG*dA*dA*dG*dA*dT*dG*dT*d[5mC]*dT*kT*kT*kG; antisense) [Compound 716379]” was tested. Which “YAP1 (% UTC)” value [1] did it give?
Its value is 123 % UTC.

For “1076069 (kT*k[5mC]*kT*dA*dA*dA*dA*dT*dG*dA*d[5mC]*d[5mC]*dT*kT*kA*kG; antisense) [Compound 1076069]”, which “YAP1 (% UTC)” value [3] is on record?
Its value is 118 % UTC.

For “1076241 (k[5mC]*kA*kA*dT*dA*dA*dG*dG*dA*dA*d[5mC]*dA*dG*kT*kT*kT; antisense) [compound 1076241]”, which “YAP1 (% UTC)” value [2] is on record?
The value was 42 % UTC.

For “716513 (antisense kA*kA*kT*d[5mC]*dT*dT*dA*dA*dT*d[5mC]*dT*dG*dT*kG*kG*k[5mC]) [Compound 716513]”, which “YAP1 (% UTC)” value [4] is on record?
The value was 30 % UTC.

How did the “YAP1 (% UTC)” value [4] turn out when “716498 (kG*kA*kA*dG*dG*dG*d[5mC]*d[5mC]*dA*dA*dA*dA*dT*kA*k[5mC]*kT; antisense) [Compound 716498]” was run?
Its value is 92 % UTC.

With “1074308 (antisense kG*k[5mC]*kA*dT*dT*dG*d[5mC]*d[5mC]*dT*dG*dT*dG*dG*k[5mC]*k[5mC]*kT) [Compound 1074308]” as the substance, how does the “YAP1 (% UTC)” value [6] read?
Its value is 132 % UTC.
